Reference: patent publication US4385055A, “2-Acetyl-and 2-propionylpyridine thiosemicarbazones as antimalarials” (The United States of America as represented by the …, priority 1981, dated 1983)
≈ marks a conversion by molar mass, not a printed value. Read-outs that look alike come from different tables or passages of the source. One block for each compound: values may come before it.

Experiments:
[1] = test system: Mycobacterium intracellulare; test: Broth dilution MIC, Mycobacterium intracellulare strains (Test 6); format: cell-based; details: read-out: Minimum Inhibitory Concentration
Mycobacterium smegmatis = test: MIC against Mycobacterium smegmatis strains (Test 4); format: cell-based; details: Mycolicibacterium smegmatis, read-out: Minimum Inhibitory Concentration
Description: Compounds were tested against four strains of Mycobacterium smegmatis. The test procedure used was as mentioned by N. E. Morrison [Int. J. of Leprosy 39:34-43 (1971)]. The strain numbers refer to Mycobacterium smegmatis ATCC 607, a DDS-resistant daughter strain, a Rifampin-resistant daughter strain, and a Clofazimine-resistant daughter strain, respectively.

[2] = test system: Plasmodium berghei KBG 173; test: In vivo antimalarial activity in mice (Test 5); parameters: key to In vivo Antimalarial Activity: C: Mice surviving 60 days are considered cured; Active: Activity is defined as a 100% increase in the mean survival time of the treated mice compared to the control group; Toxicity is defined as a decrease in the mean survival time of the treated mice as compared to the control group; details: for ED50: Plasmodium berghei, computed estimate of the dose required to cure 50% of the mice; for In vivo Antimalarial Activity: mice, C = Cure (cured/treated mice)
Description: Compounds were tested against Plasmodium berghei KBG 173 malaria in mice following the procedure described by T. S. Osdene, P. B. Russell, and L. Rane [J. Med. Chem. 10:431-434 (1967)]. Five mice were tested at each dosage level. Mice surviving 60 days are considered cured. Toxicity is defined as a decrease in the mean survival time of the treated mice as compared to the control group. Activity is defined as a 100% increase in the mean survival time of the treated mice compared to the control group.

Neisseria gonorrhoeae = test: Agar dilution MIC, Neisseria gonorrhoeae isolates (Test 3); format: cell-based; details: 24 h, read-out: Minimum Inhibitory Concentration
Description: Compounds were tested against six Neisseria gonorrhoeae isolates. The bacteria used were provided by the Department of Bacterial Diseases of the Walter Reed Army Institute of Research. The test procedure used was the agar dilution method in duplicate as outlined by J. C. Sherris on pages 411-412 (loc. cit.). GC Medium (Difco) with a 2% defined supplement added as described by D. S. Kellogg et al. [J. Bact. 85:1274-1279 (1963)] was used as the media. The compounds were dissolved in DMSO (1.0 mg/mL), diluted with GC broth (GC Medium without agar) to the appropriate concentration, and added to the GC Medium at 55°-56° C. The latter was then poured and allowed to solidify. A penicillin standard was also prepared with initial dilutions as described by J. C. Sherris followed by dilutions with GC broth and addition to the GC Medium at 55°-56° C. as above. The inoculum was 1:200 GC broth dilution of a suspension of colony isolates after the suspension was adjusted visually to the turbidity standard described by J. M. Matsen and A. L. Barr on page 422 in "Manual of Clinical Microbiology," 2nd ed., E. Lennette, E. H. Spaulding, and J. P. Truant, Ed. (American Society for Microbiology, Washington, D.C., 1974). The plates were inoculated with a replicator and incubated at 37° C. under 5-10% carbon dioxide.

Group D Enterococcus = test: Macro broth dilution MIC, Group D Enterococcus isolates (Test 1); format: cell-based; details: 24 h, read after 24 hours, read-out: Minimum Inhibitory Concentration
Description: (§1) Compounds were tested against five isolates of Staphylococcus aureus and five isolates of Group D Enterococcus. The bacteria used were isolated from patients at the Walter Reed Army Medical Center, Washington, D.C. The test procedure used was the macro broth dilution method in duplicate as outlined by J. C. Sherris on pages 414-415 in "Manual of Clinical Microbiology," 2nd ed., E. Lennette, E. H. Spaulding, and J. P. Truant, Ed. (American Society for Microbiology, Washington, D.C., 1974). Each compound was dissolved in DMSO (12.8 mg/mL) and then diluted with Mueller-Hinton broth to obtain the desired dilutions. Tubes containing the highest quantities of DMSO with no compound present were run as controls.

Neisseria meningitidis = test: Macro broth dilution MIC, Neisseria meningitidis isolates (Test 2); format: cell-based; details: Neisseria meningitidis, 24 h, read after 24 hours, read-out: Minimum Inhibitory Concentration
Description: Compounds were tested against five isolates of Neisseria meningitidis. The bacterial isolates were provided by the Department of Bacterial Diseases of the Walter Reed Army Institute of Research. The test procedure used was the macro broth dilution method in duplicate outlined by J. C. Sherris on pages 414-415 (loc. cit.). The test compounds and controls were prepared as in Test 1 above. Ampicillin and penicillin standards were initially diluted as described by J. C. Sherris on pages 411-412 (loc. cit.) followed by dilution with Mueller-Hinton broth. The tubes were incubated at 37° C. under 5-10% carbon dioxide.

Staphylococcus aureus = test: Macro broth dilution MIC, Staphylococcus aureus isolates (Test 1); format: cell-based; details: 24 h, read after 24 hours, read-out: Minimum Inhibitory Concentration
Description: as §1

[3] = Mycobacterium intracellulare strain I
[4] = Mycobacterium intracellulare strain II
[5] = Mycobacterium intracellulare strain III
[6] = Mycobacterium intracellulare strain IV
[7] = Mycobacterium intracellulare strain V
[8] = Mycobacterium intracellulare strain VI
[9] = Neisseria gonorrhoeae isolate 135, read after 24 hours
[10] = Neisseria gonorrhoeae isolate 161, read after 24 hours
[11] = Neisseria gonorrhoeae isolate 278, read after 24 hours
[12] = Neisseria gonorrhoeae isolate 455, read after 24 hours
[13] = Neisseria gonorrhoeae isolate 456, read after 24 hours
[14] = Neisseria gonorrhoeae isolate 602, read after 24 hours
[15] = Group D Enterococcus isolate II
[16] = Group D Enterococcus isolate III
[17] = Group D Enterococcus isolate IV
[18] = Neisseria meningitidis isolate 7957
[19] = Neisseria meningitidis isolate 7990
[20] = Neisseria meningitidis isolate 8005
[21] = Neisseria meningitidis isolate 8006
[22] = Neisseria meningitidis isolate 8011
[23] = Staphylococcus aureus isolate I
[24] = Staphylococcus aureus isolate II
[25] = Staphylococcus aureus isolate III
[26] = Staphylococcus aureus isolate IV
[27] = Staphylococcus aureus isolate V

Compound: CCC1CCCCN1C(=S)NN=C(C)c1ccccn1 (stereo not drawn) [AA, 2-Ethylpiperidine-1-thiocarboxylic acid 2-[1-(2-pyridyl)ethylidene]hydrazide]
MIC [1, 3]: 10 µg/mL (≈ 34.4 µM)
MIC [1, 4]: 1 µg/mL (≈ 3.44 µM)
MIC [1, 5]: 1 µg/mL (≈ 3.44 µM)
MIC [1, 6]: 1 µg/mL (≈ 3.44 µM)
MIC [1, 7]: 10 µg/mL (≈ 34.4 µM)
MIC [1, 8]: 10 µg/mL (≈ 34.4 µM)
MIC (Mycobacterium smegmatis; ATCC607, Mycobacterium smegmatis strain I (ATCC 607)): 5 µg/mL (≈ 17.2 µM)
MIC (Mycobacterium smegmatis; Mycobacterium smegmatis strain II (DDS-resistant daughter strain)): 10 µg/mL (≈ 34.4 µM)
MIC (Mycobacterium smegmatis; Mycobacterium smegmatis strain III (Rifampin-resistant daughter strain)): 10 µg/mL (≈ 34.4 µM)
MIC (Mycobacterium smegmatis; Mycobacterium smegmatis strain IV (Clofazimine-resistant daughter strain)): 10 µg/mL (≈ 34.4 µM)
ED50 [2]: 113 mg/kg

Compound: CCOC(=O)N1CCN(C(=S)NN=C(C)c2ccccn2)CC1 [Compound I, 1,4-Diaza-4-carboethoxycyclohexane-1-thiocarboxylic acid 2-[1-(2-pyridyl)ethylidene]hydrazide]
In vivo Antimalarial Activity ([2]; Dosage Level 10 mg/kg): Active
In vivo Antimalarial Activity ([2]; Dosage Level 20 mg/kg): Active
In vivo Antimalarial Activity ([2]; Dosage Level 160 mg/kg): Toxic
In vivo Antimalarial Activity ([2]; Dosage Level 640 mg/kg): Toxic

Compound: CC(=NNC(=S)N1CCCCCC1)c1ccccn1 [H, 1-Azacycloheptane-1-thiocarboxylic acid 2-[1-(2-pyridyl)ethylidene]hydrazide]
MIC (Neisseria gonorrhoeae; [9]): 0.031 µg/mL (≈ 0.112 µM)
MIC (Neisseria gonorrhoeae; [10]): 0.016 µg/mL (≈ 0.0579 µM)
MIC (Neisseria gonorrhoeae; [11]): 0.031 µg/mL (≈ 0.112 µM)
MIC (Neisseria gonorrhoeae; [12]): 0.031 µg/mL (≈ 0.112 µM)
MIC (Neisseria gonorrhoeae; [13]): 0.016 µg/mL (≈ 0.0579 µM)
MIC (Neisseria gonorrhoeae; [14]): 0.031 µg/mL (≈ 0.112 µM)
MIC [1, 3]: 1 µg/mL (≈ 3.62 µM)
MIC [1, 4]: 1 µg/mL (≈ 3.62 µM)
MIC [1, 5]: 1 µg/mL (≈ 3.62 µM)
MIC [1, 6]: 1 µg/mL (≈ 3.62 µM)
MIC [1, 7]: 1 µg/mL (≈ 3.62 µM)
MIC [1, 8]: 1 µg/mL (≈ 3.62 µM)
MIC (Group D Enterococcus; Group D Enterococcus isolate I): 4 µg/mL (≈ 14.5 µM)
MIC (Group D Enterococcus; [15]): 4 µg/mL (≈ 14.5 µM)
MIC (Group D Enterococcus; [16]): 4 µg/mL (≈ 14.5 µM)
MIC (Group D Enterococcus; [17]): 4 µg/mL (≈ 14.5 µM)
MIC (Group D Enterococcus; Group D Enterococcus isolate V): 4 µg/mL (≈ 14.5 µM)
ED50 [2]: 72 mg/kg
In vivo Antimalarial Activity ([2]; Dosage Level 40 mg/kg): Active
MIC (Neisseria meningitidis; [18]): 0.031 µg/mL (≈ 0.112 µM)
MIC (Neisseria meningitidis; [19]): 0.062 µg/mL (≈ 0.224 µM)
MIC (Neisseria meningitidis; [20]): 0.062 µg/mL (≈ 0.224 µM)
MIC (Neisseria meningitidis; [21]): 0.125 µg/mL (≈ 0.452 µM)
MIC (Neisseria meningitidis; [22]): 0.062 µg/mL (≈ 0.224 µM)

Compound: CC(=NNC(=S)N1CCN(c2ccccn2)CC1)c1ccccn1 [V, 1,4-Diaza-4-(2-pyridyl)cyclohexane-1-thiocarboxylic acid 2-[1-(2-pyridyl)ethylidene]hydrazide]
MIC (Neisseria gonorrhoeae; [9]): 0.016 µg/mL (≈ 0.047 µM)
MIC (Neisseria gonorrhoeae; [10]): < 0.008 µg/mL
MIC (Neisseria gonorrhoeae; [11]): 0.031 µg/mL (≈ 0.0911 µM)
MIC (Neisseria gonorrhoeae; [12]): 0.016 µg/mL (≈ 0.047 µM)
MIC (Neisseria gonorrhoeae; [13]): 0.016 µg/mL (≈ 0.047 µM)
MIC (Neisseria gonorrhoeae; [14]): 0.016 µg/mL (≈ 0.047 µM)
ED50 [2]: 45 mg/kg
In vivo Antimalarial Activity ([2]; Dosage Level 640 mg/kg): Toxic
MIC (Neisseria meningitidis; [18]): 0.062 µg/mL (≈ 0.182 µM)
MIC (Neisseria meningitidis; [19]): 0.125 µg/mL (≈ 0.367 µM)
MIC (Neisseria meningitidis; [20]): 0.125 µg/mL (≈ 0.367 µM)
MIC (Neisseria meningitidis; [21]): 0.125 µg/mL (≈ 0.367 µM)
MIC (Neisseria meningitidis; [22]): 0.25 µg/mL (≈ 0.734 µM)

Further lines, results first:

MIC (Staphylococcus aureus; [23]): 2 µg/mL (≈ 6.7 µM)
MIC (Staphylococcus aureus; [24]): 2 µg/mL (≈ 6.7 µM)
MIC (Staphylococcus aureus; [25]): 2 µg/mL (≈ 6.7 µM)
MIC (Staphylococcus aureus; [26]): 2 µg/mL (≈ 6.7 µM)
MIC (Staphylococcus aureus; [27]): 1 µg/mL (≈ 3.35 µM)
Compound: CC(=NNC(=S)NCc1ccccc1C)c1ccccn1 [N, 2-Acetylpyridine 4-(2-methylbenzyl)-3-thiosemicarbazone]

MIC (Group D Enterococcus; Group D Enterococcus isolate I): 2 µg/mL (≈ 6.53 µM)
MIC (Group D Enterococcus; [15]): 2 µg/mL (≈ 6.53 µM)
MIC (Group D Enterococcus; [16]): 2 µg/mL (≈ 6.53 µM)
MIC (Group D Enterococcus; [17]): 4 µg/mL (≈ 13.1 µM)
MIC (Group D Enterococcus; Group D Enterococcus isolate V): 2 µg/mL (≈ 6.53 µM)
MIC (Staphylococcus aureus; [23]): 0.5 µg/mL (≈ 1.63 µM)
MIC (Staphylococcus aureus; [25]): 1 µg/mL (≈ 3.26 µM)
MIC (Staphylococcus aureus; [26]): 0.5 µg/mL (≈ 1.63 µM)
MIC (Staphylococcus aureus; [27]): 0.5 µg/mL (≈ 1.63 µM)
MIC (Neisseria meningitidis; [18]): 0.062 µg/mL (≈ 0.202 µM)
MIC (Neisseria meningitidis; [19]): 0.125 µg/mL (≈ 0.408 µM)
MIC (Neisseria meningitidis; [20]): 0.5 µg/mL (≈ 1.63 µM)
MIC (Neisseria meningitidis; [21]): 0.062 µg/mL (≈ 0.202 µM)
MIC (Neisseria meningitidis; [22]): 0.5 µg/mL (≈ 1.63 µM)
Compound: CC(=NNC(=S)N(CC(C)C)CC(C)C)c1ccccn1 [O, 2-Acetylpyridine 4,4-diisobutyl-3-thiosemicarbazone]

MIC [1, 3]: 10 µg/mL (≈ 30.4 µM)
MIC [1, 4]: 1 µg/mL (≈ 3.04 µM)
MIC [1, 5]: 1 µg/mL (≈ 3.04 µM)
MIC [1, 6]: 10 µg/mL (≈ 30.4 µM)
MIC [1, 7]: 10 µg/mL (≈ 30.4 µM)
MIC [1, 8]: 10 µg/mL (≈ 30.4 µM)
MIC (Group D Enterococcus; Group D Enterococcus isolate I): 2 µg/mL (≈ 6.09 µM)
MIC (Group D Enterococcus; [15]): 1 µg/mL (≈ 3.04 µM)
MIC (Group D Enterococcus; [16]): 2 µg/mL (≈ 6.09 µM)
MIC (Group D Enterococcus; [17]): 2 µg/mL (≈ 6.09 µM)
MIC (Group D Enterococcus; Group D Enterococcus isolate V): 2 µg/mL (≈ 6.09 µM)
MIC (Staphylococcus aureus; [23]): 2 µg/mL (≈ 6.09 µM)
MIC (Staphylococcus aureus; [24]): 2 µg/mL (≈ 6.09 µM)
MIC (Staphylococcus aureus; [25]): 4 µg/mL (≈ 12.2 µM)
MIC (Staphylococcus aureus; [26]): 2 µg/mL (≈ 6.09 µM)
MIC (Staphylococcus aureus; [27]): 1 µg/mL (≈ 3.04 µM)
Compound: CC(=NNC(=S)NC12CC3CC(CC(C3)C1)C2)c1ccccn1 [S, 2-Acetylpyridine 4-(1-adamantyl)-3-thiosemicarbazone]
